From patent US11730714B2, “Compounds for the treatment of neuromuscular disorders” (NMD PHARMA A/S, priority 2017, dated 2023)

Experiments:
Lewis rats = assay: In situ muscle contractile characteristics: isometric hindlimb force in rats under Cisatracurium infusion; format: in vivo, rat; settings: 20 mg/kg i.v.
Protocol: Isometric hindlimb force was measured in 12-week old female Lewis rats in the presence and absence of compound.
Rats were placed under anesthesia with isoflurane (2-4%), intubated and subsequently connected to a micro ventilator (Microvent 1, Hallowell EMC, US). Two stimulation electrodes were inserted through the skin to stimulate the sciatic nerve. A small incision was made proximal to the ankle, to expose the Achilles tendon, which was tied by cotton string, and connected to a force transducer (Fort250, World Precision Instruments) with adjustable position (Vernier control). The Achilles tendon was then cut distal to the attached cotton string. […]
Muscle contractile properties were assessed by applying an electrical current (under supramaximal voltage conditions) to the nerve and recording the force generated by the muscle. The muscle was stretched until maximal force was obtained, when assessed by 2 Hz stimulation. Isometric force was measured every 30 seconds at 12 Hz (Twitch), 10 pulses, and at every 5 minutes at 80 Hz (Tetanic) for 1 second (80 pulses). […] The effect of test article was assessed on its ability to increase force generated from the stimulation pattern applied. The effect was assessed in the ability to increase force per se (tetanic, 80 Hz, stimulation), and the ratio between individual twitch peaks (12 Hz stimulation). […]

[1] = tested on: rats injected with tubocurarine; assay: Rotarod running performance of rats after I.P. tubocurarine (myasthenia-like phenotype); format: in vivo, rat; settings: C8 20 mg/kg I.P. 2 hrs before tubocurarine 0.13 mg/kg I.P.; tested 21 min after tubocurarine; sham around 2%
Protocol: FIGS. 9A-9B. […] FIG. 9A illustrates the design of the experiments. Prior to Day One the animals had been familiarized to the rotarod in three training sessions distributed over two days.
In both series of experiments, running performance was tested on a rotarod using a protocol where the rod was accelerated gradually over a 5 min period, and the running time and covered distance before falling off the rod were measured. […] Experiments with tubocurarine were carried out over two days, and on each day the effect of tubocurarine on running performance was tested. On the first day only tubocurarine was injected. […] On the second day, the animals were first allowed to run on the rotarod, and all animals performed normally. […] The allocation of the animals into the two groups (C8 or sham) was random and unknown to the experimenter (blinded experimental design).
In the first series of in vivo experiments, myasthenia gravis was simply mimicked by I.P. injection of tubocurarine (0.13 mg/kg) in animals that had been familiarized to running on the rotarod. On the first of two consecutive days, tubocurarine was injected I.P. and the running performance of the animal was tested 21 minutes after this injection. On the second day of experimentation, the animals first performed a test run to ensure that they were no longer affected by the tubocurarine injected the day before. […]

[2] = tested on: isolated rat soleus muscles; assay: Recovery of nerve-stimulated force in isolated rat soleus muscles exposed to 3.5 mM Mg2+; format: cell-based; settings: 3.5 mM Mg2+, after 70 min at elevated Mg2+
Protocol: Experiments were performed using rat soleus muscles from either young (4-wk-old) or adult Wistar rats (12-14-week-old). Animal handling, killing and isolation of muscle is described elsewhere All experiments were performed using normal Krebs-Ringer bicarbonate solution (NKR). In solutions with elevated Mg^2+, MgCl2 was added to NKR-solution causing minor increases in osmolarity and ionic strength. In solutions with elevated K^+, 4 mM NaCl was replaced by 4 mM KCl in the NKR.
The aim was to find compounds that by inhibition of CIC-1 channels can recover nerve-stimulated force under conditions of fatigue including conditions where fatigue is caused by compromised neuromuscular transmission. Neuromuscular transmission dysfunction can develop because of both pre- and/or post-synaptic complications in connection with a disorder or as part of neuromuscular blockade during/after surgery. In the initial series of drug testing, experiments were performed with isolated muscles in the presence of sub-maximal ACh receptor antagonist tubocurarine. […] To mimic conditions with pre-synaptic complication (Lambert Eaton syndrome, motor neuron disorder, polyneuropathy) the intact nerve-muscle preparations were incubated at elevated extracellular Mg^2+, which is known to suppress release of ACh from nerve terminals of motor neurons.

| Molecule | average increase in twitch peaks (Lewis rats; 12 Hz stimulation) | average increase in tetanic force (Lewis rats; 80 Hz stimulation) | increase in running performance on the second day vs the first day (rotarod) [1] | 50 μM % change after addition (AUC of nerve-stimulated force) ([2]; 50 μM compound) | 100 μM % change after addition (AUC of nerve-stimulated force) ([2]; 100 μM compound) |
| --- | --- | --- | --- | --- | --- |
| (2S)-2-(4-bromophenoxy)(2-^2H)butanoic acid [Compound A-60] | 18.5% | 52.7% | – | – | – |
| C[C@H](Oc1ccc(Br)cc1)C(=O)O [Compound C8, (2S)-2-(4-bromophenoxy)propanoic acid] | – | – | around 150% | 13 ± 4% | 26 ± 5% |
